Data as given in patent publication US9382208B1, “Negative allosteric modulators of metabotropic glutamate receptor 2” (Vanderbilt University, priority 2015, dated 2016).
Read-outs that look alike come from different tables or passages of the source.

Legend:
[1] = system: group II mGlu receptors (mGlu2 and mGlu3); conditions: cited from earlier work
[2] = system: Aβ-induced neurodegeneration; conditions: cited from earlier work
[3] = CFS model; cited from earlier work
[4] = system: Helpless (H) mice; conditions: cited from earlier work; for activity in the tail suspension test: Helpless (H) mice
[5] = system: central mGlu2 and mGlu3 receptors; conditions: in vivo; cited from earlier work
[6] = system: C57B16/J mice; conditions: FST; cited from earlier work
[7] = target: T1, rat mGlu2 (Rattus norvegicus, UniProt P31421); test: mGlu2 Ca2+ flux assay; type: cell-based; conditions: for remaining activity at 30 µM: amplitude of response in the presence of 30 μM test compound as percentage of maximal response to glutamate, read-out: rat mGlu2 Glu max (%)
T1 construct: expressed in transfected cells
Procedure, shortened: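 Gα15 HEK293 cells stably expressing rat mGlu2, Fluo-4 loaded; compound added, then glutamate at EC20 after 2.3 min and EC80 afterward, calcium flux read as F/F0. Peak amplitude around EC80 addition normalized to glutamate max; IC50 by unconstrained 4-parameter fit, top concentration 30 μM.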

[8] = system: social isolation-reared mice; conditions: cited from earlier work
[9] = system: mice; conditions: cited from earlier work
[10] = system: mouse; conditions: mouse TST, normal animals; cited from earlier work
[11] = system: rat; conditions: rat FST, normal animals; cited from earlier work
[12] = treatment for 7 days; cited from earlier work
[13] = system: olfactory bulbectomized rats; conditions: repeated administration for 14 days; cited from earlier work
[14] = Gα15 HEK293 cells stably expressing rat mGlu2, glutamate EC80 addition, read-out: rat mGlu2 IC50

T1 sequence (P31421 19-872): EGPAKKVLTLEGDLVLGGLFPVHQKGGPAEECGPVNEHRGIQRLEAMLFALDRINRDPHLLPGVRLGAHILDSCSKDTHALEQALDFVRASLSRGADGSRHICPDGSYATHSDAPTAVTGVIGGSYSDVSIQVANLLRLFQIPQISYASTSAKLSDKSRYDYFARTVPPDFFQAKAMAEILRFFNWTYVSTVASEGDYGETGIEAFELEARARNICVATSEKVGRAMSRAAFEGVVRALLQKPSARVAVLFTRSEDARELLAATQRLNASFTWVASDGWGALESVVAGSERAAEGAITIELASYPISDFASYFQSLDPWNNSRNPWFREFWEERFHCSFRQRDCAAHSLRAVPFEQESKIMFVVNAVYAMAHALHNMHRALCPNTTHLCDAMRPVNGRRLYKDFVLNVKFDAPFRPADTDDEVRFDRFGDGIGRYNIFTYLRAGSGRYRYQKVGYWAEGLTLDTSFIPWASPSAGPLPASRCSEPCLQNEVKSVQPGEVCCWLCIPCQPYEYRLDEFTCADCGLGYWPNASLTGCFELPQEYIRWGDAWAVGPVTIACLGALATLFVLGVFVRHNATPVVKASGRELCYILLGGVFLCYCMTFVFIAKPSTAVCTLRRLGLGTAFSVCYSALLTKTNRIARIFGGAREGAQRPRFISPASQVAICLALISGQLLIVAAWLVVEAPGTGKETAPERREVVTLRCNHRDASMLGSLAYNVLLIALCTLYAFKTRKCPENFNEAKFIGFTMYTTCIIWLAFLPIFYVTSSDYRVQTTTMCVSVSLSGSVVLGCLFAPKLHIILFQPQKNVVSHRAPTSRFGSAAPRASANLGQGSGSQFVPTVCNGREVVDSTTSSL

| Structure (SMILES) | IC50 [7, 14] | remaining activity at 30 µM [7] | further results |
| --- | --- | --- | --- |
| CCCCCCCOC(=O)[C@@]1(F)[C@@H]2C[C@@H](OCc3ccc(Cl)c(Cl)c3)[C@@](N)(C(=O)O)[C@@H]21 [BCI-838] | – | – | levels of monomeric and oAβ peptides in the hippocampus and cortex ([1]; three months of treatment, two AD mouse models): decreased; Dutch APP transgene-associated learning and memory impairment ([1]; three months of treatment): reversed; anxiolytic effects ([1]; three months of treatment): anxiolytic effects; hippocampal progenitor cell proliferation ([1]; wild-type and Alzheimer's diseased mice, 3 months): stimulated |
| CCS(=O)(=O)N(Cc1cccnc1)c1cccc(-c2ccc(C#N)cc2)c1 [LY566332] | – | – | Aβ-induced neurodegeneration [2]: amplified |
| CN1C(=O)CN=C(c2ccccc2)c2cc(Cl)ccc21 [diazepam] | – | – | freezing behavior [3]: significantly decreased |
| CNCCC(Oc1ccc(C(F)(F)F)cc1)c1ccccc1 (centres unmarked) [fluoxetine] | – | – | antidepressant effect in helpless mice ([4]; chronic (21 days) treatment): full antidepressant effect |
| Cc1cc(-c2cccc(C3=Nc4cc(C)c(C(F)(F)F)cc4NC(=O)C3)c2)cc(C)n1 [RO4491533] | – | – | activity in the tail suspension test [4]: active; hypolocomotor effect of mGlu2/3 agonist (LY379268) [5]: reversed the hypolocomotor effect; immobility time [6]: dose-dependently reduced |
| NC(=O)c1cn(-c2ccc(F)cc2)c2ccc(CCc3ccnc(C(F)(F)F)c3)cc2c1=O [Compound 46, 1-(4-fluorophenyl)-4-oxo-6-(2-(2-(trifluoromethyl)pyridin-4-yl)ethyl)-1,4-dihydroquinoline-3-carboxamide] | 269 nM | 0.78% | – |
| CN(Cc1cccnc1)c1ccc2c(c1)c(=O)c(C(N)=O)cn2-c1ccc(F)cc1 [Compound 12, 1-(4-fluorophenyl)-6-(methyl(pyridin-3-ylmethyl)amino)-4-oxo-1,4-dihydroquinoline-3-carboxamide] | 202 ± 14 nM | 2.39 ± 0.13% | – |
| COc1ccc(-n2cc(C(N)=O)c(=O)c3cc(CCc4cnc(C)nc4)ccc32)c(F)c1 [Compound 13, 1-(2-fluoro-4-methoxyphenyl)-6-(2-(2-methylpyrimidin-5-yl)ethyl)-4-oxo-1,4-dihydroquinoline-3-carboxamide] | 311 nM | 1.14% | – |
| Cc1ncc(CCc2ccc3c(c2)c(=O)c(C(N)=O)cn3-c2ccc(F)cc2)cn1 [Compound 1, 1-(4-Fluorophenyl)-6-(2-(2-methylpyrimidin-5-yl)ethyl)-4-oxo-1,4-dihydroquinoline-3-carboxamide] | 227 ± 55 nM | 1.52 ± 0.26% | – |
| NC(=O)c1cn(-c2ccc(F)cc2)c2ccc(COc3ccc(Cl)nc3)cc2c1=O [Compound 37, 6-(((6-chloropyridin-3-yl)oxy)methyl)-1-(4-fluorophenyl)-4-oxo-1,4-dihydroquinoline-3-carboxamide] | 203 ± 42 nM | 1.7 ± 0.12% | – |
| NC(=O)c1cn(-c2ccc(F)cc2)c2ccc(Oc3cccnc3)cc2c1=O [Compound 56, 1-(4-fluorophenyl)-4-oxo-6-(pyridin-3-yloxy)-1,4-dihydroquinoline-3-carboxamide] | 882 ± 160 nM | 1.84 ± 0.47% | – |
| NC(=O)c1cn(-c2ccc(F)cc2)c2ccc(CCc3ccccc3)cc2c1=O [Compound 5, 1-(4-fluorophenyl)-4-oxo-6-phenethyl-1,4-dihydroquinoline-3-carboxamide] | ≥ 10000 nM | 4.65% | – |
| Cc1ccc(COc2ccc3c(c2)c(=O)c(C(N)=O)cn3-c2ccc(F)cc2)cn1 [Compound 21, 1-(4-fluorophenyl)-6-((6-methylpyridin-3-yl)methoxy)-4-oxo-1,4-dihydroquinoline-3-carboxamide] | 541 ± 116 nM | 1.55 ± 0.39% | – |
| NC(=O)c1cn(-c2ccc(F)cc2)c2c(F)cc(CN3CCC(F)(F)C3)cc2c1=O [Compound 95, 6-((3,3-difluoropyrrolidin-1-yl)methyl)-8-fluoro-1-(4-fluorophenyl)-4-oxo-1,4-dihydroquinoline-3-carboxamide] | > 10000 nM | 31.1% | – |
| NC(=O)c1cn(-c2ccc(F)cc2)c2ccc(CN3CCOCC3)cc2c1=O [Compound 3, 1-(4-fluorophenyl)-6-(morpholinomethyl)-4-oxo-1,4-dihydroquinoline-3-carboxamide] | 3910 nM | -0.78% | – |
| NC(=O)c1cn(-c2ccc(F)cc2)c2ccc(N3Cc4cccnc4C3)cc2c1=O [Compound 43, 1-(4-fluorophenyl)-4-oxo-6-(5H-pyrrolo[3,4-b]pyridin-6(7H)-yl)-1,4-dihydroquinoline-3-carboxamide] | 5040 nM | 1.85% | – |
| CN(Cc1cccnc1)c1ccc2c(c1)c(=O)c(C#N)cn2-c1ccc(F)cc1 [Compound 96, 1-(4-Fluorophenyl)-6-(methyl(pyridin-3-ylmethyl)amino)-4-oxo-1,4-dihydroquinoline-3-carbonitrile] | – | 3.44% | IC50 [7]: 3160 nM |
| CN(Cc1cccnc1)c1cc(F)c2c(c1)c(=O)c(C(N)=O)cn2-c1ccc(F)cc1 [Compound 51, 8-fluoro-1-(4-fluorophenyl)-6-(methyl(pyridin-3-ylmethyl)amino)-4-oxo-1,4-dihydroquinoline-3-carboxamide] | 1180 nM | 1.39% | – |
| N[C@]1(C(=O)O)[C@H]2[C@@H](C[C@H]1OCc1ccc(Cl)c(Cl)c1)[C@]2(F)C(=O)O [MGS0039] | – | – | immobility in the FST [8]: reversed the increased immobility; marble-burying behavior [9]: reduced marble-burying behavior; spontaneous locomotor activity [9]: no significant change; antidepressant-like effects [10]: Antidepressant-like effects; antidepressant-like effects [11]: Antidepressant-like effects; freezing behavior [3]: significantly decreased; number of escape failures [12]: significantly reduced; hyperactivity in the open field test [13]: attenuated the hyperactivity; learning deficit in the passive avoidance test [13]: attenuated the learning deficit |
| CC(Oc1ccc2c(c1)c(=O)c(C(N)=O)cn2-c1ccc(F)cc1)c1ccncc1 (centres unmarked) [Compound 23, 1-(4-fluorophenyl)-4-oxo-6-(1-(pyridin-4-yl)ethoxy)-1,4-dihydroquinoline-3-carboxamide] | 460 ± 62 nM | 1.07 ± 0.13% | – |
| CCN(Cc1cccnc1)c1ccc2c(c1)c(=O)c(C(N)=O)cn2-c1ccc(F)cc1 [Compound 42, 6-(ethyl(pyridin-3-ylmethyl)amino)-1-(4-fluorophenyl)-4-oxo-1,4-dihydroquinoline-3-carboxamide] | 167 nM | 2.57% | – |
| NC(=O)c1cn(-c2ccc(F)cc2)c2ccc(OCc3cccnc3)cc2c1=O [Compound 44, 1-(4-fluorophenyl)-4-oxo-6-(pyridin-3-ylmethoxy)-1,4-dihydroquinoline-3-carboxamide] | 1080 nM | 1.67% | – |
| NC(=O)c1cn(-c2ccc(F)cc2)c2ccc(CN3CCCCCC3)cc2c1=O [Compound 73, 6-(azepan-1-ylmethyl)-1-(4-fluorophenyl)-4-oxo-1,4-dihydroquinoline-3-carboxamide] | 2590 nM | 0.96% | – |
| N[C@](CC1c2ccccc2Oc2ccccc21)(C(=O)O)[C@H]1C[C@@H]1C(=O)O [LY341495] | – | – | activity in the tail suspension test [4]: active; antidepressant effect in helpless mice ([4]; acute administration): potent antidepressant effect; marble-burying behavior [9]: significantly reduce marble-burying behavior; antidepressant-like effects [10]: Antidepressant-like effects; Aβ-induced neurodegeneration [2]: prevented; antidepressant-like effects [11]: Antidepressant-like effects; hypolocomotor effect of mGlu2/3 agonist (LY379268) [5]: achieved the same result; immobility time [6]: dose-dependently reduced |
| CN(c1cccnc1)c1ccc2c(c1)c(=O)c(C(N)=O)cn2-c1ccc(F)cc1 [Compound 20, 1-(4-fluorophenyl)-6-(methyl(pyridin-3-yl)amino)-4-oxo-1,4-dihydroquinoline-3-carboxamide] | 155 nM | 1.33% | – |
| Cc1ccccc1CCc1ccc2c(c1)c(=O)c(C(N)=O)cn2-c1ccc(F)cc1 [Compound 8, 1-(4-fluorophenyl)-6-(2-methylphenethyl)-4-oxo-1,4-dihydroquinoline-3-carboxamide] | > 10000 nM | 18.7% | – |
| C[C@@H]1CN(Cc2cc(F)c3c(c2)c(=O)c(C(N)=O)cn3-c2ccc(F)cc2)C[C@H](C)O1 [Compound 92, 6-((cis-2,6-dimethylmorpholino)methyl)-8-fluoro-1-(4-fluorophenyl)-4-oxo-1,4-dihydroquinoline-3-carboxamide] | 4410 nM | 2.23% | – |
| NC(=O)c1cn(-c2ccc(F)cc2)c2ccc(N3CCCC3c3cccnc3)cc2c1=O (centres unmarked) [Compound 40, 1-(4-fluorophenyl)-4-oxo-6-(2-(pyridin-3-yl)pyrrolidin-1-yl)-1,4-dihydroquinoline-3-carboxamide] | 429 nM | 1.81% | – |
| NC(=O)c1cn(-c2ccc(F)cc2)c2ccc(CN3CCCOCC3)cc2c1=O [Compound 72, 6-((1,4-oxazepan-4-yl)methyl)-1-(4-fluorophenyl)-4-oxo-1,4-dihydroquinoline-3-carboxamide] | > 10000 nM | 29.6% | – |
